Key:
[1] = Solubility of rotigotine in matrix components; assay type: physicochemical
[2] = as described in WO 2009/068520; cited from earlier work

| Compound | Solubility in a crystallization inhibitor such as polyvinylpyrrolidone [1] | Solubility in silicone adhesives [1] | Thermodynamic stability of the polymorphic form [2] |
| --- | --- | --- | --- |
| CCCN(CCc1cccs1)[C@H]1CCc2c(O)cccc2C1 [Rotigotine] | good soluble | very poorly soluble |  |
| CCCN(CCc1cccs1)[C@H]1CCc2c(O)cccc2C1 [polymorphic form II] |  |  | thermodynamically more stable than the polymorphic form I |

— patent publication US20230218539A1, “TRANSDERMAL THERAPEUTIC SYSTEM COMPRISING THE INGREDIENT ROTIGOTINE AND AT LEAST ONE NON-AMINE-RESISTANT SILICONE ADHESIVE” (Luye Pharma Switzerland AG, priority 2020, published 2023)
